Assay results reported in PMC7997032, “Organic synthesis and anti-influenza A virus activity of cyclobakuchiols A, B, C, and D” (PLoS ONE, 2021).
Where “and” joins values, the source holds several entries; their conditions need not be identical. Equal values may be shown once.

Experiments:
[1] = tested on: A/WSN/33 virus; assay: Influenza A viral growth assay (viral titer of culture media); format: cell-based, influenza A H1N1 virus; conditions: A/WSN/33 (WSN), 12.5uM; for viral titer of culture media, ave: average of #1-3 exp (n=9); for viral titer of culture media, individual replicate: replicates of #1-3 exp
[2] = tested on: A/PR/8/34 virus; assay: as above; format: cell-based, influenza A H1N1 virus; set-up: viral titer of culture media, individual replicate / viral titer of culture media, ave: unit not given here; conditions: A/PR/8/34 (PR8), 12.5uM; for viral titer of culture media, ave: average of #1-3 exp (n=9); for viral titer of culture media, individual replicate: replicates of #1-3 exp

C=C[C@]1(C)CC[C@@H](C(=C)C)[C@H](c2ccc(O)cc2)C1 [(1R,3S,4S)-cyclobakuchiol B]
viral titer of culture media, ave ([1]; 12h): 12633.3 | viral titer of culture media, individual replicate ([1]; 12h): 1000 (2×) and 1700 and 10000 (3×) and 20000 (2×) and 40000 | viral titer of culture media, ave ([1]; 24h): 25455556 | viral titer of culture media, individual replicate ([1]; 24h): 2000000 (2×) and 300000 and 80000000 and 30000000 and 16000000 and 40000000 and 8800000 and 50000000 | viral titer of culture media, ave ([1]; 48h): 275666667 | viral titer of culture media, individual replicate ([1]; 48h): 100000000 and 160000000 and 61000000 and 430000000 and 420000000 and 440000000 and 180000000 and 300000000 and 390000000 | viral titer of culture media, ave ([1]; 72h): 208055556 | viral titer of culture media, individual replicate ([1]; 72h): 35000000 and 20000000 and 27500000 and 320000000 and 390000000 and 350000000 and 250000000 and 280000000 and 200000000 | viral titer of culture media, ave ([2]; 12h): 24444.4 | viral titer of culture media, individual replicate ([2]; 12h): 70000 and 30000 (2×) and 10000 (3×) and 20000 (3×) | viral titer of culture media, ave ([2]; 24h): 30000 | viral titer of culture media, individual replicate ([2]; 24h): 60000 and 50000 (2×) and 20000 (3×) and 10000 (2×) and 30000 | viral titer of culture media, ave ([2]; 48h): 41111.1 | viral titer of culture media, individual replicate ([2]; 48h): 40000 (3×) and 30000 (2×) and 80000 (2×) and 20000 and 10000 | viral titer of culture media, ave ([2]; 72h): 58888.9 | viral titer of culture media, individual replicate ([2]; 72h): 30000 (2×) and 40000 and 20000 and 10000 (2×) and 250000 and 80000 and 60000

C=C[C@]1(C)CC[C@@H](C(C)(C)O)[C@H](c2ccc(O)cc2)C1 [(1R,3S,4S)-cyclobakuchiol D]
viral titer of culture media, ave ([1]; 12h): 10344.4 | viral titer of culture media, individual replicate ([1]; 12h): 600 and 2000 and 500 and 20000 (3×) and 10000 (3×) | viral titer of culture media, ave ([1]; 24h): 25855556 | viral titer of culture media, individual replicate ([1]; 24h): 2700000 and 4000000 and 1000000 and 30000000 (2×) and 10000000 and 80000000 and 25000000 and 50000000 | viral titer of culture media, ave ([1]; 48h): 191111111 | viral titer of culture media, individual replicate ([1]; 48h): 80000000 and 50000000 (2×) and 300000000 (2×) and 250000000 (3×) and 190000000 | viral titer of culture media, ave ([1]; 72h): 140200000 | viral titer of culture media, individual replicate ([1]; 72h): 90000000 and 14000000 and 7800000 and 140000000 and 130000000 and 100000000 and 210000000 and 280000000 and 290000000 | viral titer of culture media, ave ([2]; 12h): 23333.3 | viral titer of culture media, individual replicate ([2]; 12h): 30000 (4×) and 40000 and 20000 and 10000 (3×) | viral titer of culture media, ave ([2]; 24h): 46666.7 | viral titer of culture media, individual replicate ([2]; 24h): 100000 and 30000 and 80000 and 20000 and 10000 (2×) and 50000 (2×) and 70000 | viral titer of culture media, ave ([2]; 48h): 42222.2 | viral titer of culture media, individual replicate ([2]; 48h): 40000 (2×) and 30000 and 90000 and 10000 (2×) and 20000 and 80000 and 60000 | viral titer of culture media, ave ([2]; 72h): 51111.1 | viral titer of culture media, individual replicate ([2]; 72h): 100000 (2×) and 10000 (3×) and 40000 and 20000 and 90000 and 80000

C=C[C@@](C)(/C=C/c1ccc(O)cc1)CCC=C(C)C [天然型バクチオール]
viral titer of culture media, individual replicate ([1]; 12h): 900 and 300 and 1100 and 30000 (2×) and 10000 (3×) and 50000 | viral titer of culture media, ave ([1]; 24h): 14411111 | viral titer of culture media, individual replicate ([1]; 24h): 300000 and 1500000 and 900000 and 7000000 and 16000000 and 9000000 and 20000000 and 5000000 and 70000000 | viral titer of culture media, ave ([1]; 48h): 220000000 | viral titer of culture media, individual replicate ([1]; 48h): 50000000 and 74000000 and 26000000 and 320000000 and 280000000 and 330000000 and 260000000 and 290000000 and 350000000 | viral titer of culture media, ave ([1]; 72h): 150111111 | viral titer of culture media, individual replicate ([1]; 72h): 10000000 and 29000000 and 52000000 and 150000000 and 240000000 and 210000000 and 200000000 (2×) and 260000000 | viral titer of culture media, individual replicate ([2]; 12h): 10000 (4×) and 30000 (3×) and 40000 (2×) | viral titer of culture media, ave ([2]; 24h): 22222.2 | viral titer of culture media, individual replicate ([2]; 24h): 50000 and 10000 (5×) and 40000 (2×) and 20000 | viral titer of culture media, ave ([2]; 48h): 25555.6 | viral titer of culture media, individual replicate ([2]; 48h): 50000 and 20000 and 40000 and 10000 (3×) and 30000 (3×) | viral titer of culture media, ave ([2]; 72h): 31111.1 | viral titer of culture media, individual replicate ([2]; 72h): 30000 (2×) and 20000 (2×) and 40000 (2×) and 10000 (2×) and 80000
